T1: OmpF3–MlaA (Escherichia coli, UniProt P02931+P76506)
T1 sequence (P02931 23-362): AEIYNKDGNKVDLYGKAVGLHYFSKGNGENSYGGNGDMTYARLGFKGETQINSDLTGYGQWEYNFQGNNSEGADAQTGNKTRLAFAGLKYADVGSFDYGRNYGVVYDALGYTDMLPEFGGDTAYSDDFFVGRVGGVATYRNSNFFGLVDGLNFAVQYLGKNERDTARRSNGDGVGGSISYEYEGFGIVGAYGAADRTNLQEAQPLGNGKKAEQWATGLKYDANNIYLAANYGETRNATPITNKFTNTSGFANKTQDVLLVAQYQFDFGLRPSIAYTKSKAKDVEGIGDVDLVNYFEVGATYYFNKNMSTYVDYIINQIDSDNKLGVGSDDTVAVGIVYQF
T1 sequence (P76506 18-251): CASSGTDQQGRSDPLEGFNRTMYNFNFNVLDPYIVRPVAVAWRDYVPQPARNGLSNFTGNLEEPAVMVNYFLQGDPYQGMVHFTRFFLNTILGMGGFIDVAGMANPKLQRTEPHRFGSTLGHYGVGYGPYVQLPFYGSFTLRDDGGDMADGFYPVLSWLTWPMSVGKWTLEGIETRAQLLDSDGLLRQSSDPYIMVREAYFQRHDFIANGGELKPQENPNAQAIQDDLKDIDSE

T2: MlaC (Escherichia coli, UniProt P0ADV7)
T2 sequence (P0ADV7 22-211): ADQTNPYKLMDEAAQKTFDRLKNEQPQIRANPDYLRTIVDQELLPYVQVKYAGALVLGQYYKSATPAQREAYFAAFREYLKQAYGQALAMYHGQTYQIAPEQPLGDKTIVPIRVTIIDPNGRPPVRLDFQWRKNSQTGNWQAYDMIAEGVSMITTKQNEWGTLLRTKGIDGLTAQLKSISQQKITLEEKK

T3: OmpF3 (Escherichia coli, UniProt P02931)
T3 sequence (P02931 23-362): T1 sequence (P02931 23-362)

B1: OmpF (natural protein)
chain: T1 sequence (P02931 23-362)

Tests used:
OmpF3–MlaA = target: T1, OmpF3–MlaA; assay: native MS of lipid-bound complex; assay type: binding; details: incubated with synthetic lipid
MlaC = target: T2, MlaC; assay: native MS of lipid-loaded MlaC after buffer exchange; assay type: binding; details: 5 µM delipidated MlaC, 25 µM lipid, 5 min, 2xCMC C8E4, 200 mM ammonium acetate pH 7.0, no OmpF3–MlaA
OmpF3 = target: T3, OmpF3; assay: native MS of lipid-bound complex; assay type: binding; details: incubated with synthetic lipid; negative ion mode; MlaA-free trimer
native MS = target: the molecule itself; assay: native MS

| Molecule | degree of phospholipid binding (OmpF3–MlaA; positive and negative ion mode) | degree of phospholipid binding (OmpF3–MlaA) | other results |
| --- | --- | --- | --- |
| CCCCCCCC/C=C\CCCCCCCC(=O)OC[C@H](COP(=O)(O)OCCN)OC(=O)CCCCCCC/C=C\CCCCCCCC [DOPE] | DOPE binds with intermediate affinity, and its binding is strongly increased by MlaA | – | – |
| CCCCCCCC/C=C\CCCCCCCC(=O)O[C@H](COC(=O)CCCCCCCCCCCCCCC)COP(=O)(O)OCC(O)CO (stereo partly shown) [POPG] | – | Varying the degree of saturation (DSPG) or length (POPG) of the lipid chains | – |
| CCCCCCCC/C=C\CCCCCCCC(=O)OC[C@H](COP(=O)(O)OCC(O)CO)OC(=O)CCCCCCC/C=C\CCCCCCCC (stereo partly shown) [DOPG] | – | – | % MlaC loaded (MlaC): ~ 5% |
| CCCCCCCCCCCCCCCCCC(=O)OC[C@H](COP(=O)(O)OCC(O)CO)OC(=O)CCCCCCCCCCCCCCCCC (stereo partly shown) [DSPG] | – | Varying the degree of saturation (DSPG) or length (POPG) of the lipid chains | – |
| CCCCCCCC/C=C\CCCCCCCC(=O)OC[C@H](COP(=O)([O-])OCC[N+](C)(C)C)OC(=O)CCCCCCC/C=C\CCCCCCCC [DOPC] | DOPC binds with high affinity to OmpF3 and OmpF3–MlaA | – | degree of phospholipid binding (OmpF3): DOPC binds with high affinity to OmpF3 and OmpF3–MlaA |
| B1 | – | – | stoichiometry N (native MS): 3 |

Reference: PMC12002339 (Proceedings of the National Academy of Sciences of the …, 2025)
